Data published in patent US20200255489A1, “Novel Senolytic Peptides” (priority 2017, published 2020).
Where a SMILES comes first, the peptide text is derived from it. [ ]: non-standard residue; d: D form.

Assays:
[1] = Acute Systemic Toxicity Test (ISO 10993-11); type: in vivo, mice (BALB/c); conditions: BALB/c
Procedure: Senolytic Peptides were evaluated for toxicity according to Acute Sytemic Toxicity Test (ISO 10993-11). This study was performed in strict accordance with the protocol approved by the TUBITAK-MAM Animal Ethics Committee. All the mice used in this study were of a BALB/c background at 8-12 weeks of age. All mice were kept in group housing until the start of the experiment after which they were placed in separate cages (5 mice per cage). The Senolytic Peptide (SEQ ID NO: 11) is administered intravenously using a mice model (BALB/c) at doses of 1, 10, 50 and 100 mg/kg and vehicle alone is also administered using single injections (n=5, per group). Control and Senolytic Peptide (SEQ ID NO: 11) injected mice were sacrificed 24 hours later for pathological examination. […] Blood samples were subsequently collected for determination and analysis of hematological and biochemical parameters. Plasma alanine aminotransferase (ALT), aspartate aminotransferase (AST), alkaline phosphatase (ALP) activities and blood urea, glucose, triglyceride levels were determined, inter alia, full hematological parameters.

[2] = system: Doxorubicin induced renal senescence; assay: Doxorubicin induced chemotoxicity / renal senescence in mice; type: in vivo; conditions: male BALB/c mice, doxorubicin 8 mg/kg i.p. twice
Procedure: This study was performed in strict accordance with the protocol approved by the TUBITAK-MAM Animal Ethics Committee. All the mice used in this study were of a BALB/c background at 8-12 weeks of age. All mice were kept in group housing until the start of the experiment after which they were placed in separate cages (4 mice per cage). Only male mice were used throughout the study. Where feasible, littermates were used. All mice were randomly assigned to experimental group. Mice were fed ad libidum. Initial weights of the mice were recorded. Mice were divided into three groups (A-No Treatment, B-Doxorubicin Treatment+Mock Treatment, C-Doxorubicin Treatment+Senolytic Peptide Treatment). Doxorubicin induced chemotoxicity was used for the induction of renal senescence in mice. Mice in Group B and C were intraperitoneally administered with doxorubicin (8 mg/kg) twice (at 0 and 10th day). Weights of the mice were recorded three times a week. 24 days after 2nd Doxorubicin treatment, PBS (mock Treatment) was administered intravenously to Group B and Senolytic Peptide (SEQ ID NO: 12) (3×10 mg/kg) was administered to Group C in three days (every other day) (FIG. 17A). The mice health, activity and appearance were monitored and they were sacrificed 14 days later. Gross pathology and pathology of the mice analysed. Mice organs and tissues are flash-frozen in liquid nitrogen and embedded in OCT and kept at −80 C. 10 micron thick mid-sagittal cryo-sections of the kidney were taken and SA-B-Gal activity was assayed as in Example 1-3. Doxorubicin induced alopecia and caused weight loss in mice and both conditions are reversed upon the Senolytic Peptide (SEQ ID NO: 12) Treatment (FIG. 17B).

[3] = system: senescent and non-senescent WI-38 cells; assay: XTT viability assay on Doxorubicin induced senescent and non-senescent WI-38 fibroblasts; type: cell-based, human; conditions: senescence by 100 NM Doxorubicin, total doses 0 to 100 pM on 3 consecutive days, XTT after 7 days
Procedure: (§1) WI-38 cells (ATCC #CCL-75, a diploid primary human fibroblast adherent cell line derived from fetal lung tissue) were treated with a chemotherapy agent, 100 NM Doxorubicin twice every other day to induce senescence. […] Later these cells were used for experiments comparing them to their non-Doxorubicin (non-senescent) treated counterparts. Senescent and non-senescent WI-38 fibroblasts were plated for XTT viability assays. 7000 senescent (obtained as described above) and 2000 non-senescent WI-38 fibroblasts were plated in 96-well plates incubated. The cells were treated with mock (PBS) or the Senolytic Peptide (SEQ ID NO: 11) at total doses ranging from 0 to 100 pM. The mock and peptide treatments were carried out for 3 consecutive days (24, 48 and 72 hours) after plating. After treatment period, the cells were incubated for 7 days until XTT-based viability was analyzed according to the manufacturer's instructions. […]
(§2) WI-38 cells (ATCC #CCL-75, a diploid primary human fibroblast adherent cell line derived from fetal lung tissue) and IMR90 cells (ATCC #CCL-186, a diploid primary human fibroblast adherent cell line derived from fetal lung tissue) were treated with a chemotherapy agent, 100 NM Doxorubicin twice every other day to induce senescence. […] After treatment period, the cells were incubated for 7 days until XTT-based viability was analyzed according to the manufacturer's instructions. […]

[4] = system: senescent and non-senescent IMR90 cells; assay: XTT viability assay on Doxorubicin induced senescent and non-senescent IMR90 fibroblasts; type: cell-based, human; conditions: senescence by 100 NM Doxorubicin, total doses 0 to 100 pM on 3 consecutive days, XTT after 7 days
Procedure: as §1, with “IMR-90 cells” for “WI-38 cells”, “(ATCC #CCL-186,” for “(ATCC #CCL-75,”, “with” for “with a chemotherapy agent,”, “day for senescence induction.” for “day to induce senescence.”, “non-senescent IMR90” for “non-senescent WI-38”, “Senolytic Peptide(s)” for “Senolytic Peptide (SEQ ID NO: 11)”
as §2

[5] = peptide 3x10 mg/kg every other day

Row | Molecule | toxicity to the physical appearance of the mice ([1]; single intravenous injection 1, 10, 50 and 100 mg/kg, within 24 hours of injection) | toxicity by hematological parameters, AST, ALT, ALP levels and gross pathology ([1]; single intravenous injection, even at 100 mg/kg, 24 hours) | Doxorubicin induced alopecia [2, 5] | Doxorubicin induced weight loss [2, 5] | senescent cells in kidneys (SA-B-Gal activity of kidney sections) ([2]; peptide 3x10 mg/kg, sacrificed 14 days later) | effect on viability of senescent versus non-senescent cells (XTT) [3] | effect on viability of senescent versus non-senescent cells (XTT) [4]
1 | CC(C)C[C@H](NC(=O)[C@@H](NC(=O)[C@H](CC(C)C)NC(=O)[C@H](CCCNC(=N)N)NC(=O)[C@H](CCCCN)NC(=O)[C@H](CCCNC(=N)N)NC(=O)[C@@H]1CCCN1C(=O)[C@H](C)NC(=O)[C@H](CCCNC(=N)N)NC(=O)[C@H](CCCNC(=N)N)NC(=O)[C@H](CCCNC(=N)N)NC(=O)[C@H](CCCNC(=N)N)NC(=O)[C@H](CCCNC(=N)N)NC(=O)[C@H](CCCNC(=N)N)NC(=O)[C@H](CCCNC(=N)N)NC(=O)[C@H](CCCNC(=N)N)NC(=O)[C@H](CCCNC(=N)N)NC(=O)[C@H](CCCNC(=N)N)NC(=O)[C@H](CCCNC(=N)N)NC(=O)[C@H](CCCNC(=N)N)NC(=O)[C@H](CCCNC(=N)N)NC(=O)[C@H](CCCNC(=N)N)NC(=O)CNC(=O)[C@H](Cc1c[nH]c2ccccc12)NC(=O)[C@H](C)NC(=O)[C@H](CCCNC(=N)N)NC(=O)[C@H](CCCNC(=N)N)NC(=O)[C@H](CCCNC(=N)N)NC(=O)[C@H](CCCNC(=N)N)NC(=O)CNC(=O)CNC(=O)[C@H](CCCCN)NC(=O)[C@H](CCCNC(=N)N)NC(=O)[C@@H]1CCCN1C(=O)[C@H](N)CCCNC(=N)N)[C@@H](C)O)C(=O)O [SEQ ID NO: 11, dRPRKGGRRRR AWGRRRRRRR RRRRRRRAPR KRLTL] (H-[dR]PRKGGRRRRAWGRRRRRRRRRRRRRRAPRKRLTL-OH) | No toxicity | no toxicity |  |  |  |  | 
2 | PRKGGSRRRAWGNQRYARLIRQAIESAPEKRLTLA (PRKGGSRRRAWGNQRYARLIRQAIESAPEKRLTLA; Based on Homo sapiens sequence) [SEQ ID NO: 12] |  |  | reversed | reversed | cleared senescent cells in kidneys | selectively decreased the viability | selectively decreased the viability
